Results taken from ChEMBL document CHEMBL4033763, “Synthesis and Anti-HCV Activity of a Novel 2',3'-Dideoxy-2'-α-fluoro-2'-β-C-methyl Guanosine Phosphoramidate Prodrug” (ACS Med Chem Lett, 2017).
pEC50: −log10 of the molar value.

Tests used:
[1] = Cytotoxicity against human HuH7 cells expressing HIV LTR promoter driven luciferase reporter gene in presence of 10% fetal bovine serum by lucifrease reporter gene assay; format: cell-based, Huh-7
Hepatitis C virus [2] = experiment: Antiviral activity against HCV 2a replicon infected in human HuH7 cells expressing HIV LTR promoter driven luciferase reporter gene assessed as reduction in viral RNA replication incubated for 48 hrs by lucifrease reporter gene assay; format: functional, cell-based, Hepacivirus hominis; settings: genotype 2a, Huh-7, 48 h
Hepatitis C virus [3] = experiment: Antiviral activity against HCV 1b replicon infected in human HuH7 cells expressing HIV LTR promoter driven luciferase reporter gene assessed as reduction in viral RNA replication incubated for 48 hrs by lucifrease reporter gene assay; format: functional, cell-based, Hepacivirus hominis; settings: genotype 1b, Huh-7, 48 h
Hepatitis C virus [4] = experiment: Antiviral activity against HCV 1a replicon infected in human HuH7 cells expressing HIV LTR promoter driven luciferase reporter gene assessed as reduction in viral RNA replication incubated for 48 hrs by lucifrease reporter gene assay; format: functional, cell-based, Hepacivirus hominis; settings: subtype 1a, Huh-7, 48 h
Hepatitis C virus [5] = experiment: Antiviral activity against NS5B S282T mutant expressing HCV 1b replicon infected in human HuH7 cells expressing HIV LTR promoter driven luciferase reporter gene assessed as reduction in viral RNA replication incubated for 48 hrs by lucifrease reporter gene assay; format: functional, cell-based, Hepacivirus hominis; settings: genotype 1b, Huh-7, 48 h

Row | Compound | CC50 [1] | pEC50 (Hepatitis C virus [2]) | pEC50 (Hepatitis C virus [3]) | pEC50 (Hepatitis C virus [4]) | pEC50 (Hepatitis C virus [5])
1 | COc1nc(N)nc2c1ncn2[C@@H]1O[C@H](CO[P@@](=O)(N[C@@H](C)C(=O)OC2CCCC2)Oc2ccccc2)C[C@@]1(C)F | > 100000 nM | 6.41 | 6.24 | 5.96 | 6.09
2 | COc1nc(N)nc2c1ncn2[C@@H]1O[C@H](CO)C[C@@]1(C)F | > 100000 nM |  | < 4.00 |  | 
